Results published in patent publication US9181237B2, “Substituted berbines and their synthesis” (MALLINCKRODT LLC, priority 2013, dated 2015).

Tests used:
[1] = system: murine melanoma cell line, B16; assay: B16 cancer cell screening assay: inhibition of B16 proliferation; assay type: cell-based; settings: B16 cells exposed to several concentrations; for IC50: read-out: B16 Profile IC50
Description: (§1) The murine melanoma cell line, B16, was used to screen the activity of compounds comprising Formula (V). B16 cells were grown under standard conditions and exposed to several concentrations of each of the tested compounds.

[2] = system: murine melanoma cell line, B16; assay: B16 cancer cell screening assay: inhibition of lactate dehydrogenase (LDH) release; assay type: cell-based; settings: B16 cells exposed to several concentrations
Description: as §1

[3] = Mus musculus, B16, inhibition of B16 proliferation
[4] = Mus musculus, B16, inhibition of lactate dehydrogenase (LDH) release
[5] = inhibition of lactate dehydrogenase (LDH) release
[6] = inhibition of B16 proliferation

Structure (SMILES) | IC50 [1, 3] [µM] | IC50 [2, 4] [µM] | further results
COc1ccc2c(c1)CCN1[C@H]2Cc2ccc(OC)c(O)c2[C@H]1C1CCC1 [M-R-0003] | > 600 | 150 | –
COc1cc2c(cc1OC)CN1CCc3cc4c(cc3[C@@H]1C2)OCO4 [M-R-0011] | 120 | 70 | –
COc1ccc2c(c1)CCN1[C@H](Cc3ccccc3)c3c(ccc(OC)c3O)C[C@@H]21 [M-R-0016] | 75 | 700 | –
CCC[C@@H]1c2cc(OC)c(O)cc2C[C@H]2c3ccc(OC)cc3CCN12 [M-R-0007] | > 400 | – | B16 LDH IC50 [2, 5]: Inactive
COc1ccc2c(c1)CCN1Cc3cc(OC)c(O)cc3C[C@@H]21 [M-R-0004] | > 600 | > 600 | –
COc1ccc2c(c1O)[C@H](Cc1ccccc1)N1CCc3cc4c(cc3[C@@H]1C2)OCO4 [M-R-0012] | > 600 | > 700 | –
COc1cc2c(cc1O)[C@@H](Cc1ccccc1)N1CCc3cc4c(cc3[C@@H]1C2)OCO4 [M-R-0025] | – | – | IC50 [1, 6]: > 160 µM; IC50 [2, 5]: ~350 µM
COc1ccc2c(c1)CCN1[C@H]2Cc2cc(O)c(OC)cc2[C@H]1C1CCC1 [M-R-0002] | 200 | 200 | –
COc1ccc2c(c1)CCN1[C@H](Cc3ccccc3)c3c(O)c(OC)cc(Br)c3C[C@@H]21 [M-R-0021] | 65 | ~350 | –
COc1ccc2c(c1)CCN1Cc3c(ccc(OC)c3O)C[C@H]21 [M-R-0010] | 300 | – | B16 LDH IC50 [2, 5]: Inactive
COc1cc2c(cc1O)[C@@H](Cc1ccccc1)N1CCc3cc4c(cc3[C@@H]1C2)OCO4 [M-R-0013] | – | 700 | IC50 [1, 6]: 75 µM
COc1ccc2c(c1)CCN1Cc3cc(OC)c(O)cc3C[C@H]21 [M-R-0009] | – | – | B16 Profile IC50 [1, 6]: Inactive; B16 LDH IC50 [2, 5]: Inactive
CC[C@@H]1c2c(ccc(OC)c2O)C[C@H]2c3ccc(OC)cc3CCN12 [M-R-0001] | > 600 | 175 | –

Continued, in another order:

IC50 [1, 3] [µM] | IC50 [2, 4] [µM] | Structure (SMILES) | further results
35 | 30 | COc1ccc2c(c1)CCN1[C@H](c3ccccc3)c3cc(OC)c(O)cc3C[C@@H]21 [M-R-0005] | –
25 | 130 | COc1ccc2c(c1)CCN1[C@H](c3ccccc3)c3cc(O)c(O)cc3C[C@@H]21 [M-R-0015] | –
55 | 60 | COc1ccc2c(c1)CCN1[C@H](Cc3ccccc3)c3cc(OC)c(O)cc3C[C@@H]21 [M-R-0017] | –
35 | 35 | COc1ccc2c(c1)CCN1[C@@H](c3ccccc3)c3cc(OC)c(O)cc3C[C@@H]21 [M-R-0006] | –
60 | 70 | COc1ccc2c(c1)CCN1[C@H](c3ccccc3)c3c(ccc(OC)c3O)C[C@@H]21 [M-R-0024] | –
10 | 70 | COc1ccc2c(c1)CCN1[C@@H](c3ccccc3)c3cc(O)c(O)cc3C[C@@H]21 [M-R-0014] | –
25 | 30 | COc1ccc2c(c1)CCN1[C@@H](c3ccccc3N)c3c(O)c(OC)cc(Br)c3C[C@@H]21 [M-R-0022] | –
27 | 40 | COc1ccc2c(c1)CCN1[C@H](c3ccccc3)c3c(O)c(OC)cc(Br)c3C[C@@H]21 [M-R-0023] | –
38 | > 320 | COc1ccc2c(c1)CCN1Cc3c(ccc(OC)c3O)C[C@@H]21 [M-R-0008] | –
18 | 30 | COc1ccc2c(c1)CCN1[C@@H](c3ccccc3Br)c3c(O)c(OC)cc(Br)c3C[C@@H]21 [M-R-0020] | –
55 | 60 | COc1cc2c(cc1O)[C@H](Cc1ccccc1)N1CCc3cc4c(cc3[C@@H]1C2)OCO4 [M-R-0026] | –
35 | 30 | COc1cc2c(cc1O)C[C@H]1c3cc4c(cc3CCN1[C@H]2c1ccccc1)OCO4 [M-R-0018] | –
45 | 50 | COc1cc2c(cc1O)C[C@H]1c3cc4c(cc3CCN1[C@@H]2c1ccccc1)OCO4 [M-R-0019] | –
